Results: patent US20030152986A1, “Method for sorting antifungal molecules acting on the glucanosyltransferase activity” (Institut Pasteur, priority 1996, published 2003)
Substitutions are numbered along the chain they refer to.

T1: 49 kDa enzyme (Aspergillus fumigatus, UniProt B0XT72)
T1 construct: from tissue; host or cells: Aspergillus fumigatus CBS 144-89 mycelium, cell wall autolysate; four ion-exchange steps and one gel filtration
T1 sequence (B0XT72 whole entry, looked up): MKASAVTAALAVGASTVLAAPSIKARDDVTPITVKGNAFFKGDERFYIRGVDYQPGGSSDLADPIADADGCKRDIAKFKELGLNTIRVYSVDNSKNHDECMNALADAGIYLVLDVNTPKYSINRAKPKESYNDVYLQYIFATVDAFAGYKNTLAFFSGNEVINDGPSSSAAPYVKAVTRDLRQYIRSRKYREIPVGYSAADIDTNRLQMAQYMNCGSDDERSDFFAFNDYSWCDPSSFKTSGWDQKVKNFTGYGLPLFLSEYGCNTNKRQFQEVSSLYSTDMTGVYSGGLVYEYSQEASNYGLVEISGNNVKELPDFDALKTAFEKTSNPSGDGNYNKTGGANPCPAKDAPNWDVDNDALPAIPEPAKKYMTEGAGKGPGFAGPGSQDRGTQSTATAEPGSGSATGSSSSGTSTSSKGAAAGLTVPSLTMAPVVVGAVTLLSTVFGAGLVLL

B1: 49 kDa enzyme: β-(1-3)-glucanosyltransferase purified from cell wall autolysate of A. fumigatus, SEQ ID NO 2/3 (protein, listed as Aspergillus fumigatus)
chain 1: T1 sequence (B0XT72 whole entry, looked up) with A103T
chain 2: DDVTPITVKGNAFFKGDERFYIRGVDYQPGGSSDLADPIADADGCKRDIAKFKELGLNTIRVYSVDNSKNHDECMNTLADAGIYLVLDVNTPKYSINRAKPKESYNDVYLQYIFATVDAFAGYKNTLAFFSGNEVINDGPSSSAAPYVKAVTRDLRQYIRSRKYREIPVGYSAADIDTNRLQMAQYMNCGSDDERSDFFAFNDYSWCDPSSFKTSGWDQKVKNFTGYGLPLFLSEYGCNTNKRQFQEVSSLYSTDMTGVYSGGLVYEYSQEASNYGLVEISGNNVKELPDFDALKTAFEKTSNPSGDGNYNKTGGANPCPAKDAPNWDVDNDALPAIPEPAKKYMTEGAGKGPGFAGPGSQDRGTQSTATAEPGSGSATGSSSSGTSTSSKGAAAGLTVPSLTMAPVVVGAVTLLSTVFGAGLVLL

Experiments:
[1] = biological target: T2, 49 kDa β-(1-3)-glucanosyltransferase (BGT2) (Aspergillus fumigatus, UniProt B0XT72); assay: Transferase assay with reduced (^3H-marked) laminarioligosaccharides, products separated by HPAEC; assay type: biochemical; conditions: for activity of the transferase towards the substance as substrate/donor: incubation with 49 kDa transferase, HPAEC analysis of products
T2 construct: from tissue; host or cells: Aspergillus fumigatus CBS 144-89 mycelium, cell wall autolysate; four ion-exchange steps and one gel filtration
Experimental: The enzyme fractions were assayed for transferase activity by incubation in 50 mM Na citrate, pH 5.0 at 37° C. (10 μl volume per assay) with a laminarioligosaccharide reduced with borohydride (8 mM final) of at least size G10. Samples (3 μl) were taken at different times, 50 mM NaOH cooled in ice (47 μl) was added to terminate the reaction, and the mixture was frozen until analyzed by high-performance anion-exchange chromatography (HPAEC). Since the peak intensities detected by Pulsed Electrochemical Detector (PED) varied from day to day, the transferase activity was quantified by use of reduced laminarioligosaccharides marked with ^3H as substrates and measurement of the appearance of the marking in the products after separation by HPAEC chromatography, using the on-line Radiomatic 150TR scintillation rate analysis apparatus (Packard).
Except where otherwise mentioned, the assays for the enzyme characterization studies were performed as above with 0.25 μg of purified transferase.
The samples from the transferase tests were analyzed on a Dionex CarboPac PA1 analytical column (4×250 mm) (with a PA1 reference column) on a Dionex HPAEC-type system with pulsed electrochemical detection (PED-2 cell), fitted with a combination of pH-Ag/AgCl reference electrodes and using a potential of 0.4 V for the first 0.5 s of detection. The oligosaccharides were eluted under the following conditions: flow rate 1 ml/min, buffer A: 50 mM NaOH; buffer B: 500 mM sodium acetate in 50 mM NaOH; gradient 0 to 2 min, 98% A 2% B (isocratic), 2 to 15 min 75% A 25% B (linear), 15 to 45 min 60% A 40% B (linear).
In order to determine the relative reaction rate of the enzymes with laminarioligosaccharides of variable sizes, the 49 kDa enzyme (0.25 μg) was incubated with 8 mM of rG10 to rG15 marked with ^3H and the rate of formation of the marked products was measured. The rate with rG10 (328 nmol.min^−1) was approximately equal to 50% of that with the larger substrates and there was no significant difference between the reaction rates for rG11 to rG15 (648±46 nmol.min^−1.mg protein^−1).
The relative rate of the reaction with the acceptors was determined by using 2 mM of rG11 as donor and 32 mM of reduced acceptor marked with ^3H and measuring the formation of marked transferase product (FIG. 4). Under these conditions, the reaction with rG11 used as acceptor was negligible. The reaction rate increased with an increase in chain length, showing that the 49 kDa enzyme prefers the larger laminarioligosaccharide acceptors.
By using rG11 as substrate, it was impossible to calculate an apparent Km corresponding to the two steps of the reaction. In order to determine a Km for the donor site, we used an acceptor which was not a donor. We used [^3H]-rG7 (1×10^6 cpm) as acceptor at a high concentration (64 mM) with different concentrations of rG11 kept below 8 mM. Under these conditions, the reaction took place with rG11 as donor and rG7 was used rather than rG11 as acceptor, as determined by the absence of formation of the transferase product rG16. The initial reaction rate was determined by measuring the appearance of marked rG12.

49 kDa enzyme = biological target: T1, 49 kDa enzyme; assay: Optimum pH and storage stability of the 49 kDa enzyme; assay type: biochemical
Experimental: FIG. 6 illustrates the effect of pH on the transfer rate. The 49 kDa transferase was incubated with 8 μM of [^3H]-rG11 (1×10^6 cpm). The reaction rates were determined by measuring the quantity of marking formed in the form of the product rG16. The buffers used were: ●, sodium citrate/citric acid; ∘, imidazole/citric acid; x, sodium acetate/acetic acid; [formula], Tris/glycine; ▴, phosphate/NaOH; □, Tris/acetic acid; Δ, glycine/HCl.
The 49 kDa enzyme was tested at different pH values, the storage stability was verified and the activity of the N-glycosylated enzyme was tested. The enzyme was active over a wide range of acid pH, showing an activity of more than 50% of its maximum between pH 2.5 and 6.0.

Row | Molecule | activity of the transferase towards the substance as substrate/donor [1] | also measured
1 | OC[C@H]1O[C@@H](O[C@H]2[C@H](O)[C@@H](O)[C@H](O[C@H]3[C@H](O)[C@@H](O)[C@H](O[C@H]4[C@H](O)[C@@H](O)[C@H](O[C@H]5[C@H](O)[C@@H](O)C(O)O[C@@H]5CO)O[C@@H]4CO)O[C@@H]3CO)O[C@@H]2CO)[C@H](O)[C@@H](O)[C@@H]1O (stereo partly shown) [ceflopentaose] | no activity | 
2 | chitohexaose | no activity | 
3 | gentiooligosaccharides | no activity | 
4 | maltoheptaose | no activity | 
5 | reduced laminarihexose [[^3H]-rG6] |  | Transfer rate ([1]; 2 mM rG11 as donor, 32 mM ^3H-marked reduced acceptor, initial rate of formation of transfer product): 387 nmol.min^−1.mg protein^−1
6 | B1 |  | storage stability (49 kDa enzyme; 4° C. in 10 mM citrate buffer pH 5.0 for several weeks, speed-vac dried and re-suspended, or −20° C.): without significant loss of activity; pH optimum (49 kDa enzyme; citrate buffer): about 5.0
